In ChEMBL document CHEMBL4406842, “Synthesis and in vitro biological evaluation of novel derivatives of Flexicaulin A condensation with amino acid trifluoroacetate” (Eur J Med Chem, 2019):

Assays:
MCF7 = assay: Antiproliferative activity against human MCF7 cells assessed as reduction in cell viability incubated for 72 hrs by SRB assay; assay type: functional, cell-based; conditions: MCF7, 72 h
TE-1 = assay: Antiproliferative activity against human TE1 cells assessed as reduction in cell viability incubated for 72 hrs by SRB assay; assay type: functional, cell-based; conditions: TE-1, 72 h
A549 = assay: Antiproliferative activity against human A549 cells assessed as reduction in cell viability incubated for 72 hrs by SRB assay; assay type: functional, cell-based; conditions: A549, 72 h
MGC-803 = assay: Antiproliferative activity against human MGC803 cells assessed as reduction in cell viability incubated for 72 hrs by SRB assay; assay type: functional, cell-based; conditions: MGC-803, 72 h
[1] = Solubility of compound in water; assay type: physicochemical; conditions: buffer

SMILES	IC50 (MCF7) [µM]	IC50 (A549) [µM]	IC50 (MGC-803) [µM]	solubility [1]	IC50 (TE-1) [µM]
C=C1C(=O)[C@]23[C@H](O)[C@H]1C[C@H](O)[C@H]2[C@]1(COC(C)=O)CCCC(C)(C)[C@H]1C[C@H]3OC	1.65	1.77	1.11	–	4.4
C=C1C(=O)[C@]23[C@H](OC(=O)[C@H](C)NC)[C@H]1C[C@H](O)[C@H]2[C@]1(COC(C)=O)CCCC(C)(C)[C@H]1C[C@H]3OC.O=C(O)C(F)(F)F	5.03	2.79	6.34	Soluble	3.32
C=C1C(=O)[C@]23[C@H](OC(=O)[C@H](CCCCNC(=O)OC(C)(C)C)NC(=O)OC(C)(C)C)[C@H]1C[C@H](O)[C@H]2[C@]1(COC(C)=O)CCCC(C)(C)[C@H]1C[C@H]3OC	4.06	6.46	5.43	Insoluble	2.76
C=C1C(=O)[C@]23[C@H](OC(=O)CNC)[C@H]1C[C@H](O)[C@H]2[C@]1(COC(C)=O)CCCC(C)(C)[C@H]1C[C@H]3OC.O=C(O)C(F)(F)F	3.62	5.86	5.35	Soluble	3.19
C=C1C(=O)[C@]23[C@H](OC(=O)[C@H](CCCNC(=O)OC(C)(C)C)NC(=O)OC(C)(C)C)[C@H]1C[C@H](O)[C@H]2[C@]1(COC(C)=O)CCCC(C)(C)[C@H]1C[C@H]3OC	2.15	2.99	3.33	Insoluble	1.39
C=C1C(=O)[C@]23[C@H](OC(=O)[C@@H]4CCCCN4C(=O)OC(C)(C)C)[C@H]1C[C@H](O)[C@H]2[C@]1(COC(C)=O)CCCC(C)(C)[C@H]1C[C@H]3OC	2.69	3.57	3	Insoluble	1.46
C=C1C(=O)[C@]23[C@H](OC(=O)[C@H](CCCC)NC(=O)OC(C)(C)C)[C@H]1C[C@H](O)[C@H]2[C@]1(COC(C)=O)CCCC(C)(C)[C@H]1C[C@H]3OC	4.42	11	11.2	Insoluble	4.49
C=C1C(=O)[C@]23[C@H](OC(=O)[C@@H](NC(=O)OC(C)(C)C)c4ccccc4)[C@H]1C[C@H](O)[C@H]2[C@]1(COC(C)=O)CCCC(C)(C)[C@H]1C[C@H]3OC	1.58	2.94	2.21	Insoluble	0.87
C=C1C(=O)[C@@]23[C@H](O)C[C@@H]4C(C)(C)CCC[C@@]4(COC(C)=O)[C@@H]2[C@@H](O)C[C@@H]1[C@H]3O [FLEXICANLIN A]	5.45	6.77	9.94	Insoluble	5.07
C=C1C(=O)[C@]23[C@H](OC(=O)[C@H](CCSC)NC(=O)OC(C)(C)C)[C@H]1C[C@H](O)[C@H]2[C@]1(COC(C)=O)CCCC(C)(C)[C@H]1C[C@H]3OC	2.27	4.63	2.86	Insoluble	1.33
C=C1C(=O)[C@]23[C@H](OC(=O)[C@H](C)N)[C@H]1C[C@H](O)[C@H]2[C@]1(COC(C)=O)CCCC(C)(C)[C@H]1C[C@H]3OC.O=C(O)C(F)(F)F	7.37	3.96	10.5	Soluble	3.07
C=C1C(=O)[C@]23[C@H](OC(=O)CN(C)C(=O)OC(C)(C)C)[C@H]1C[C@H](O)[C@H]2[C@]1(COC(C)=O)CCCC(C)(C)[C@H]1C[C@H]3OC	3.08	5.46	3.94	Insoluble	1.45
C=C1C(=O)[C@]23[C@H](O)[C@H]1CC[C@H]2[C@@]12CO[C@]3(O)[C@@H](O)[C@@H]1C(C)(C)CC[C@@H]2O [ORIDONIN]	22	13.5	14.1	–	12.7

Further lines, with some results ahead:

IC50 (MCF7) [µM]	IC50 (A549) [µM]	IC50 (MGC-803) [µM]	solubility [1]	SMILES	IC50 (TE-1) [µM]
2.58	3.49	2.55	Insoluble	C=C1C(=O)[C@]23[C@H](OC(=O)[C@H]4CCCN(C(=O)OC(C)(C)C)C4)[C@H]1C[C@H](O)[C@H]2[C@]1(COC(C)=O)CCCC(C)(C)[C@H]1C[C@H]3OC	1.65
2.59	6.81	4.93	Insoluble	C=C1C(=O)[C@]23[C@H](OC(=O)[C@H](CCC)NC(=O)OC(C)(C)C)[C@H]1C[C@H](O)[C@H]2[C@]1(COC(C)=O)CCCC(C)(C)[C@H]1C[C@H]3OC	1.82
1.27	2.67	0.99	Soluble	C=C1C(=O)[C@]23[C@H](OC(=O)[C@@H](N)C(C)C)[C@H]1C[C@H](O)[C@H]2[C@]1(COC(C)=O)CCCC(C)(C)[C@H]1C[C@H]3OC.O=C(O)C(F)(F)F	1.97
2.51	1.54	3.22	Soluble	C=C1C(=O)[C@]23[C@H](OC(=O)[C@@H](N)CCCC)[C@H]1C[C@H](O)[C@H]2[C@]1(COC(C)=O)CCCC(C)(C)[C@H]1C[C@H]3OC.O=C(O)C(F)(F)F	2.64
3.06	6.22	3.22	Insoluble	C=C1C(=O)[C@]23[C@H](OC(=O)[C@H](Cc4ccccc4)NC(=O)OC(C)(C)C)[C@H]1C[C@H](O)[C@H]2[C@]1(COC(C)=O)CCCC(C)(C)[C@H]1C[C@H]3OC	2.44
1.11	1.68	1.66	Soluble	C=C1C(=O)[C@]23[C@H](OC(=O)[C@@H](N)c4ccccc4)[C@H]1C[C@H](O)[C@H]2[C@]1(COC(C)=O)CCCC(C)(C)[C@H]1C[C@H]3OC.O=C(O)C(F)(F)F	0.92
3.75	4.42	3.88	Soluble	C=C1C(=O)[C@]23[C@H](OC(=O)[C@@H](N)CC)[C@H]1C[C@H](O)[C@H]2[C@]1(COC(C)=O)CCCC(C)(C)[C@H]1C[C@H]3OC.O=C(O)C(F)(F)F	2.57
5.1	7.51	5.02	Soluble	C=C1C(=O)[C@]23[C@H](OC(=O)[C@@H]4CCCN4)[C@H]1C[C@H](O)[C@H]2[C@]1(COC(C)=O)CCCC(C)(C)[C@H]1C[C@H]3OC.O=C(O)C(F)(F)F	4.28
2.73	3.94	2.88	Insoluble	C=C1C(=O)[C@]23[C@H](OC(=O)[C@@H](NC(=O)OC(C)(C)C)C(C)C)[C@H]1C[C@H](O)[C@H]2[C@]1(COC(C)=O)CCCC(C)(C)[C@H]1C[C@H]3OC	1.68
2.36	5.63	2.64	Insoluble	C=C1C(=O)[C@]23[C@H](OC(=O)[C@H](C)NC(=O)OC(C)(C)C)[C@H]1C[C@H](O)[C@H]2[C@]1(COC(C)=O)CCCC(C)(C)[C@H]1C[C@H]3OC	1.07
2.05	5.41	3.29	Insoluble	C=C1C(=O)[C@]23[C@H](OC(=O)[C@H](C)N(C)C(=O)OC(C)(C)C)[C@H]1C[C@H](O)[C@H]2[C@]1(COC(C)=O)CCCC(C)(C)[C@H]1C[C@H]3OC	1.04
7.89	1.62	7.15	Soluble	C=C1C(=O)[C@]23[C@H](OC(=O)CCCCN)[C@H]1C[C@H](O)[C@H]2[C@]1(COC(C)=O)CCCC(C)(C)[C@H]1C[C@H]3OC.O=C(O)C(F)(F)F	3.16
1.56	5.64	3.06	Insoluble	C=C1C(=O)[C@]23[C@H](OC(=O)CCCCNC(=O)OC(C)(C)C)[C@H]1C[C@H](O)[C@H]2[C@]1(COC(C)=O)CCCC(C)(C)[C@H]1C[C@H]3OC	1.19
2.57	3.86	3.15	Soluble	C=C1C(=O)[C@]23[C@H](OC(=O)CN)[C@H]1C[C@H](O)[C@H]2[C@]1(COC(C)=O)CCCC(C)(C)[C@H]1C[C@H]3OC.O=C(O)C(F)(F)F	1.85
7.1	9.5	5.47	Insoluble	C=C1C(=O)[C@]23[C@H](OC(=O)[C@H](C(C)C)N(C)C(=O)OC(C)(C)C)[C@H]1C[C@H](O)[C@H]2[C@]1(COC(C)=O)CCCC(C)(C)[C@H]1C[C@H]3OC	5.41
2.84	5.41	3.5	Insoluble	C=C1C(=O)[C@]23[C@H](OC(=O)CCCCCNC(=O)OC(C)(C)C)[C@H]1C[C@H](O)[C@H]2[C@]1(COC(C)=O)CCCC(C)(C)[C@H]1C[C@H]3OC	1.72
1.01	2.71	1	Soluble	C=C1C(=O)[C@]23[C@H](OC(=O)[C@@H](N)Cc4ccccc4)[C@H]1C[C@H](O)[C@H]2[C@]1(COC(C)=O)CCCC(C)(C)[C@H]1C[C@H]3OC.O=C(O)C(F)(F)F	1.88
